Assay results from PubChem BioAssay (NCI).
Several values for one entry are separate records, joined by “and”; a condition that tells them apart may be missing. Equal values may be shown once.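 Interpolation was linear, between the two tested concentrations surrounding the appropriate level; five concentrations were tested over 48 hours in 96-well plates. Here, GI50 denotes the concentration required for 50% inhibition of growth. Definition used: TGI = concentration required for complete inhibition of growth.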

How the values were obtained:
Test in all cases: inhibition of tumour cell growth, NCI panel, 48 h
[1] = test system: 786-0 renal
[2] = test system: A498 renal
[3] = test system: A549 NSCLC
[4] = test system: ACHN renal
[5] = test system: BT-549 breast
[6] = test system: CAKI-1 renal
[7] = test system: CCRF-CEM leukemia
[8] = test system: COLO 205 colon
[9] = test system: DU-145 prostate
[10] = test system: EKVX NSCLC
[11] = test system: HCC-2998 colon
[12] = test system: HCT-116 colon
[13] = test system: HCT-15 colon
[14] = test system: HL-60(TB) leukemia
[15] = test system: HOP-62 NSCLC
[16] = test system: HOP-92 NSCLC
[17] = test system: HS 578T breast
[18] = test system: HT29 colon
[19] = test system: IGROV1 ovarian
[20] = test system: K-562 leukemia
[21] = test system: KM12 colon
[22] = test system: LOX IMVI melanoma
[23] = test system: M14 melanoma
[24] = test system: MALME-3M melanoma
[25] = test system: MCF7 breast
[26] = test system: MDA-MB-231 breast
[27] = test system: MDA-MB-435
[28] = test system: MOLT-4 leukemia
[29] = test system: NCI-H226 lung
[30] = test system: NCI-H23 lung
[31] = test system: NCI-H460 lung
[32] = test system: NCI-H522 lung
[33] = test system: NCI/ADR-RES ovarian
[34] = test system: OVCAR-3 ovarian
[35] = test system: OVCAR-4 ovarian
[36] = test system: OVCAR-5 ovarian
[37] = test system: OVCAR-8 ovarian
[38] = test system: PC-3 prostate
[39] = test system: RPMI-8226 leukemia
[40] = test system: RXF 393 renal
[41] = test system: SF-268 CNS
[42] = test system: SF-295 CNS
[43] = test system: SF-539 CNS
[44] = test system: SK-MEL-2 melanoma
[45] = test system: SK-MEL-28 melanoma
[46] = test system: SK-MEL-5 melanoma
[47] = test system: SK-OV-3 ovarian
[48] = test system: SN12C renal
[49] = test system: SNB-19 CNS
[50] = test system: SNB-75 CNS
[51] = test system: SR leukemia
[52] = test system: SW-620 colon
[53] = test system: T-47D breast
[54] = test system: TK-10 renal
[55] = test system: U251 CNS
[56] = test system: UACC-257 melanoma
[57] = test system: UACC-62 melanoma
[58] = test system: UO-31 renal

In the case of `COc1cc2c(Nc3ccc(Br)cc3F)ncnc2cc1OCC1CCN(C)CC1`, the GI50 [1] is reported as 2.96 µM and 3.01 µM, the TGI [1] is reported as 13.1 µM and > 10 µM and the GI50 [2] is reported as 0.712 µM and 2.03 µM. The TGI [2] was 4.36 µM and > 10 µM, the GI50 [3] was 3.32 µM and 4.63 µM and the TGI [3] was 15.9 µM and > 10 µM. For the same molecule, the GI50 [4] was 0.471 µM and 0.556 µM, the TGI [4] was 11.4 µM and > 10 µM and the GI50 [5] was 7.38 µM and > 10 µM. The TGI [5] was 19.7 µM and > 10 µM, the GI50 [6] was 0.729 µM and 1.28 µM and the TGI [6] was 5.24 µM and > 10 µM. The GI50 [7] was 4.71 µM and > 10 µM, the TGI [7] was 17.5 µM and > 10 µM and the GI50 [8] was 3.6 µM and 4.33 µM. The TGI [8] was 9.88 µM and > 10 µM, the GI50 [9] was 1.31 µM and 3.98 µM and the TGI [9] was 15.1 µM and > 10 µM. For the same molecule, the GI50 [10] was 0.286 µM and 0.401 µM, the TGI [10] was 10.3 µM and > 10 µM and the GI50 [11] was 7.38 µM and > 10 µM. For the same molecule, the TGI [11] was 21.6 µM and > 10 µM, the GI50 [12] was 3.8 µM and 4.32 µM and the TGI [12] was 15.1 µM and > 10 µM. The GI50 [13] was 2.27 µM and 2.95 µM, the TGI [13] was 11.5 µM and > 10 µM and the GI50 [14] was 2.65 µM and 3.14 µM. The TGI [14] was 7.56 µM and > 10 µM, the GI50 [15] was 3.24 µM and 5.81 µM and the TGI [15] was 14.6 µM and > 10 µM. For the same molecule, the GI50 [16] was 0.527 µM and 0.454 µM, the TGI [16] was 4.07 µM and 6.91 µM and the GI50 [17] was 2.26 µM and 2.48 µM. The TGI [17] was 8.6 µM and > 10 µM, the GI50 [18] was 2.38 µM and 3.39 µM and the TGI [18] was 10.8 µM and > 10 µM. For the same molecule, the GI50 [19] was 0.408 µM and 0.398 µM, the TGI [19] was 3.61 µM and 5.27 µM and the GI50 [20] was 0.436 µM and 0.651 µM. The TGI [20] was 11.8 µM and > 10 µM, the GI50 [21] was 8.94 µM and > 10 µM and the TGI [21] was 21.4 µM and > 10 µM. The GI50 [22] was 2.37 µM and 3.39 µM, the TGI [22] was 8.83 µM and > 10 µM and the GI50 [23] was 1.91 µM and 1.74 µM. The TGI [23] was 3.62 µM and 3.66 µM, the GI50 [24] was 1.83 µM and 4.47 µM and the TGI [24] was 3.85 µM and > 10 µM. For the same molecule, the GI50 [25] was 2.52 µM and 4.67 µM, the TGI [25] was 16 µM and > 10 µM and the GI50 [26] was 2.19 µM and 3.62 µM. The TGI [26] was 8.29 µM and > 10 µM, the GI50 [27] was 1.74 µM and 3.81 µM and the TGI [27] was 3.61 µM and > 10 µM. The GI50 [28] was 3.97 µM and 9.42 µM, the TGI [28] was 15.5 µM and > 10 µM and the GI50 [29] was 5.23 µM and > 10 µM. For the same molecule, the TGI [29] was 18.8 µM and > 10 µM, the GI50 [30] was 9.57 µM and > 10 µM and the TGI [30] was 21.9 µM and > 10 µM. For the same molecule, the GI50 [31] was 4.69 µM and 9.98 µM, the TGI [31] was 17 µM and > 10 µM and the GI50 [32] was 2 µM and 1.28 µM. The TGI [32] was 7.31 µM and > 10 µM, the GI50 [33] was 5.58 µM and > 10 µM and the TGI [33] was 19.1 µM and > 10 µM. The GI50 [34] was 1.65 µM and 2.58 µM, the TGI [34] was 14.2 µM and > 10 µM and the GI50 [35] was 2.92 µM and 5.59 µM. The TGI [35] was 14.8 µM and > 10 µM, the GI50 [36] was 2.65 µM and 3.23 µM and the TGI [36] was 18.7 µM and > 10 µM. The GI50 [37] was 5 µM and 7.4 µM, the TGI [37] was 18 µM and > 10 µM and the GI50 [38] was 4.06 µM and 3.9 µM. The TGI [38] was 18.6 µM and > 10 µM, the GI50 [39] was 3.33 µM and 6.84 µM and the TGI [39] was 14 µM and > 10 µM. The GI50 [40] was 1.44 µM and 1.29 µM, the TGI [40] was 4.77 µM and 8.32 µM and the GI50 [41] was 3.24 µM and 6.18 µM. The TGI [41] was 15 µM and > 10 µM, the GI50 [42] was 5.39 µM and > 10 µM and the TGI [42] was 15.3 µM and > 10 µM. For the same molecule, the GI50 [43] was 2.93 µM and 7.94 µM, the TGI [43] was 9.49 µM and > 10 µM and the GI50 [44] was 5.33 µM and > 10 µM. For the same molecule, the TGI [44] was 10.9 µM and > 10 µM, the GI50 [45] was 1.68 µM and 1.78 µM and the TGI [45] was 3.27 µM and 4.2 µM. For the same molecule, the GI50 [46] was 4.38 µM and 5.5 µM, the TGI [46] was 8.94 µM and > 10 µM and the GI50 [47] was 1.2 µM and 1.67 µM. For the same molecule, the TGI [47] was 7.06 µM and > 10 µM, the GI50 [48] was 1.58 µM and 3.04 µM and the TGI [48] was 12.1 µM and > 10 µM. For the same molecule, the GI50 [49] was 4.7 µM and > 10 µM, the TGI [49] was 18.3 µM and > 10 µM and the GI50 [50] was 0.737 µM and 1.13 µM. The TGI [50] was 5.79 µM and > 10 µM, the GI50 [51] was 2.55 µM and 2.89 µM and the TGI [51] was 8.29 µM and > 10 µM. For the same molecule, the GI50 [52] was 4.69 µM and > 10 µM, the TGI [52] was 15.7 µM and > 10 µM and the GI50 [53] was 1.66 µM and 1.32 µM. The TGI [53] was 8.56 µM and > 10 µM, the GI50 [54] was 0.317 µM and 0.54 µM and the TGI [54] was 6.58 µM and > 10 µM. For the same molecule, the GI50 [55] was 4.81 µM and 7.68 µM, the TGI [55] was 17.1 µM and > 10 µM and the GI50 [56] was 1.85 µM and 1.73 µM. For the same molecule, the TGI [56] was 3.44 µM and 3.6 µM, the GI50 [57] was 1.8 µM and 2.79 µM and the TGI [57] was 4.03 µM and > 10 µM. The GI50 [58] was 0.573 µM and 0.479 µM and the TGI [58] was 2.5 µM and 5.78 µM.
